Like-named read-outs stand apart in the source and are kept apart here.
Key:
Male Wistar rats [1] = test: Conditioned avoidance response inhibition (shuttle box); type: in vivo; conditions: for Conditioned relfex ID50: rats, 50% inhibiting dose, dosing one hour before the measurement, oral
Method: The antipsychotic (neuroleptic) effect was measured by the inhibition of the learned conditioned avoidance reflex. The male Wistar rats used for the study were of 120 to 150 g body weight at the beginning of learning. A shuttle box was used as experimental device, it consisted of two parts, 24x24,5x23 cm each, separated by a wall with a 6x9 cm gate. In response to a suitable warning stimulus, in order to avoid the punishing (unconditioned) stimulus, animals within the box passed through the gate from one part to the other. The warning, i.e. conditioned stimulus (CS), a white light (1 Hz) blinking for 15 seconds, was applied at the actual place of the animal. The unconditioned stimulus (US), in form of 0,6 mA intensity electric shock, was randomly applied to the paw during the last 5 seconds of the conditioned stimulus. The animal's movement during the CS and US from one part of the box to the other was defined as avoidance and escape response, respectively. Both responses ceased the actual stimulus and stopped the trial. The time elapsed until the next trial (intertrial interval, ITI) was 15 seconds. While one experiment was carried out daily, an experiment consisted of 80 trials. Learning efficiency was expresses as percentage of the successful to the total avoidances. Effect of the neuroleptic drugs was examined in animals with stabilized conditioned reflexes and with at least 75% learning efficiency. Dosing was carried out once a week, one hour before the measurement in the shuttle box. To calculate the neuroleptic effect (50% inhibiting dose, ID₅₀), the results obtained after the treatment were compared to those obtained on the previous day (controls).

[2] = test system: Male rats belonging to the Spraghe Dawley strain; test: Elevated plus maze test on rat; type: in vivo; conditions: for MED: p.o., minimum effective dose causing a significant increase of time spent on the open arms, rats, pretreatment 60 minutes
Method: The test was carried out with the aid of a wooden plus-shaped maze elevated to a height of 50 cm. Two arms (100 cm long and 15 cm wide) - opposite to one another - were enclosed up to a height of 40 cm along their longer sides and at the end. The other two arms were without walls (open arms). The central 15x15 cm part was open. Male rats belonging to the Spraghe Dawley strain and weighing 220 to 260 g were used as test animals. After pretreatment lasting 60 minutes the animals were placed into the central part of the maze. During the 5 minutes observation period the following parameters were recorded: • time spent on the open arms • time spent on the closed arms • number of open arm entries • number of closed arm entries.
The drug effect was expressed as percent increase of the time spent on the open arms and number of open arm entries. The minimum effective dose which caused a significant increase of the time spent on the open arms was calculated for every substance [Pelow, S., Chopin, P., File, S.E., Briley, M.:J. Neurosci. Methods 14, 149-167 (1985)].

Male Wistar rats [3] = test: Vogel test (drinking conflict test); type: in vivo; conditions: for MED: minimum effective dose, increase of tolerated shocks, rats, intraperitoneally half an hour before testing
Method: Male Wistar rats of 160 to 180 g body weight were kept free of food and drinking water for 24 and 48 hours, respectively. Test and carrier substances were administered intraperitoneally half an hour before testing. Animals within the experimental chamber were provided with drinking water through an inserted tube. After the animals' each twenty lapping for water the device emitted a 2 mA intensity electric shock through the drinking tube. During 5 minutes the shocks tolerated by the animals in order to quench their thirst were counted. The effect of treatment was expressed as the % increase of the tolerated shocks. The minimum effective dose (MED) was determined for each test compound [Vogel, J.R., Beer, B., Clody, D.E.:Psychopharmacologia (Berl.)21, 1(1971)].

mice [4] = test: Effect on the spontaneous motor activity (method of Borsy et al., 10-channel Dews system); type: in vivo; conditions: for Mobility inhibition ID50: treated orally, 1 hour after treatment, interruptions of infrared beam within 30 minutes
Method: The test was carried out according to the method of Borsy et al. Groups consisting of 3 mice each were treated orally with different doses of the compounds to be tested 1 hour after treatment with the test compound or the vehicle the animals were placed into a 10-channel Dews system equipment. In this equipment the number of interruptions of infrared beam within 30 minutes was counted. From these date 50% inhibiting doses (IC₅₀) were determined with the aid of a line of regression [Borsy, J., Csanyi, E., Lazar, I.: Arch. Int. Pharmacodyn. 124, a (1960)].

mice [5] = conditions: value taken from literature (Drugs of Future 10(II), 731 (1985)); cited from earlier work
Male Wistar rats [6] = conditions: value taken from literature (J. Med. Chem. 29(3), 363(1986); Drugs of Future 10(II), 731(1985)); cited from earlier work
[7] = Vogel test, ratio of MED values

Molecule | Conditioned relfex ID50 (Male Wistar rats [1]) | MED [2] | MED (Male Wistar rats [3]) [mg/kg] | Mobility inhibition ID50 (mice [4]) | other results
CN(C)CCCN1c2ccccc2Sc2ccc(Cl)cc21 [Chloropromazine] | 13,2 mg/kg |  |  |  | 
CCCC(C)(COC(N)=O)COC(N)=O [Meprobamate] |  | >10,0 mg/kg | 25.0 |  | 
CN1C(=O)CN=C(c2ccccc2)c2cc(Cl)ccc21 [Diazepam] |  |  |  | 23,0 mg/kg | 
CNC1=Nc2ccc(Cl)cc2C(c2ccccc2)=[N+]([O-])C1 [Chlorodiazepoxide] |  |  | 10.0 | 56,0 mg/kg | 
Cc1nc2sccn2c(=O)c1CCN1CCC(=C(c2ccc(F)cc2)c2ccc(F)cc2)CC1 [Ritanserin] |  | 5,0 mg/kg |  |  | 
8-{4-[4-(1,2-Benzisothiazol-3-yl)-1-piperazinyl]-but-2-ynyl}-8-azaspiro[4,5]decane-7,9-dione [Example 1] | 30,0 mg/kg | 2,5 mg/kg | 5.0 | ineffective(>100) mg/kg | effectiveness relative to Ritanserin ([2]; elevated plus maze, ratio of MED values): twice as effective; influence on the conditioned avoidance response (Male Wistar rats [1]; up to an oral dose of 30 mg/kg, result in words): does not influence the conditioned avoidance response; influence on the spontaneous motor activity (mice [4]; result in words): does not influence the spontaneous motor activity; effectiveness relative to chlorodiazepoxide (Male Wistar rats [3]; [7]): twice as effective; times as effective as Meprobamate (Male Wistar rats [3]; [7]): 5
O=C(CCCN1CCC(O)(c2ccc(Cl)cc2)CC1)c1ccc(F)cc1 [Haloperidol] | 0,6 mg/kg |  |  |  | 
O=C1CC2(CCCC2)CC(=O)N1CCCCN1CCN(c2nsc3ccccc23)CC1 [Thiaspiron, thiaspiron] |  |  |  |  | Mobility inhibition ID50 (mice [5]): 8,4 mg/kg; Conditioned relfex ID50 (Male Wistar rats [6]): 10,5 mg/kg

Reference: EP0623616A1, “Heterocyclic compounds and process for the preparation thereof” (EGIS GYOGYSZERGYAR RT., priority 1993, dated 1994)
